Assay results published in ChEMBL document CHEMBL5316343, “Design, Synthesis, and Biological Evaluation of a Potent Dual EZH2-BRD4 Inhibitor for the Treatment of Some Solid Tumors” (J Med Chem, 2023).
The source made the active and inactive calls. The calls are words filed in the database; no cut-off is given here.

Key:
BXPC-3 [1] = assay: Induction of apoptosis in human BXPC-3 cells assessed as late apoptotic cells at 2.5 uM incubated for 48 hrs by Annexin V-FITC/PI staining based flow cytometric analysis (reference value: 4.38 %); assay type: functional
MDA-MB-231 [2] = assay: Induction of apoptosis in human MDA-MB-231 cells assessed as late apoptotic cells at 1 uM incubated for 48 hrs by Annexin V-FITC/PI staining based flow cytometric analysis (reference value: 1.06%); assay type: functional
A549 = assay: Antiproliferative activity against human A549 cells assessed as inhibition of cell proliferation incubated for 6 days by CCK8 assay; assay type: functional, cell-based; conditions: time 6.0 day
[3] = target: T1, Histone-lysine N-methyltransferase EZH2 (Homo sapiens, UniProt Q15910); assay: Inhibition of EZH2 in human MDA-MB-231 cells assessed as increase in H3K27ac level at 5 uM by fluorescence based analysis; assay type: cell-based
Target sequence in this assay (Q15910 whole entry, looked up): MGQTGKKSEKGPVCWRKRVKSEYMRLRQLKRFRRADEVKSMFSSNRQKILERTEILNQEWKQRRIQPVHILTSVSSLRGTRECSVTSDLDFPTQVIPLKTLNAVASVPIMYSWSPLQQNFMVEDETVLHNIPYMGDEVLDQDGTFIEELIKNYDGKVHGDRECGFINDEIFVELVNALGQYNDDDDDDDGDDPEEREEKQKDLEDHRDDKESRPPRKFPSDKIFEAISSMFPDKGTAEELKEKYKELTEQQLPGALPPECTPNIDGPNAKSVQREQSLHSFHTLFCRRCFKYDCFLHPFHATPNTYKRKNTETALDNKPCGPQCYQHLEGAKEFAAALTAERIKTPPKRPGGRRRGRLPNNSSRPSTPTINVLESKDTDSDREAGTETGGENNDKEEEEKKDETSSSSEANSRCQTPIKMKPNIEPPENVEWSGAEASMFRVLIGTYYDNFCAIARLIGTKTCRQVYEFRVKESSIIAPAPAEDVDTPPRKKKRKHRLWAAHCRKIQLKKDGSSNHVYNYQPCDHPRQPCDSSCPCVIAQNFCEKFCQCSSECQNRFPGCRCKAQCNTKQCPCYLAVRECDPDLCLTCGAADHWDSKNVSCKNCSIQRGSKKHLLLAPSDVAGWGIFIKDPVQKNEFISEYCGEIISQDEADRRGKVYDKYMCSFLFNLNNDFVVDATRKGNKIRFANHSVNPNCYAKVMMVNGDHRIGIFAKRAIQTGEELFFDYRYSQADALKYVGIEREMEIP

BXPC-3 [4] = assay: Induction of apoptosis in human BXPC-3 cells assessed as early apoptotic cells at 1 uM incubated for 48 hrs by Annexin V-FITC/PI staining based flow cytometric analysis (reference value: 3.28 %); assay type: functional
[5] = Protein binding in mouse plasma assessed as bound fraction at 2 uM incubated for 5 hrs by equilibrium based LC-MS/MS analysis; assay type: ADME, cell-free; conditions: read-out: PPB (converted)
MDA-MB-231 [6] = assay: Induction of apoptosis in human MDA-MB-231 cells assessed as late apoptotic cells at 5 uM incubated for 48 hrs by Annexin V-FITC/PI staining based flow cytometric analysis (reference value: 1.06%); assay type: functional
MDA-MB-231 [7] = assay: Induction of apoptosis in human MDA-MB-231 cells assessed as viable cells at 5 uM incubated for 48 hrs by Annexin V-FITC/PI staining based flow cytometric analysis (reference value: 97.63%); assay type: functional; conditions: read-out: Activity
PANC-1 = assay: Antiproliferative activity against human PANC-1 cells assessed as inhibition of cell proliferation incubated for 6 days by CCK8 assay; assay type: functional, cell-based; conditions: time 6.0 day
MDA-MB-231 [8] = assay: Antiproliferative activity against human MDA-MB-231 cells assessed as inhibition of cell proliferation incubated for 6 days by CCK8 assay; assay type: functional, cell-based; conditions: time 6.0 day
T-24 = assay: Antiproliferative activity against human T24 cells assessed as inhibition of cell proliferation incubated for 6 days by CCK8 assay; assay type: functional, cell-based; conditions: time 6.0 day
MDA-MB-231 [9] = assay: Inhibition of cell proliferation in human MDA-MB-231 cells assessed as decrease in c-Myc mRNA level at 5 uM incubated for 48 hrs by qRT-PCR analysis; assay type: functional, cell-based
[10] = target: T1, Histone-lysine N-methyltransferase EZH2; assay: Inhibition of EZH2 (unknown origin) by radiometric assay
Target sequence in this assay (Q15910 whole entry): as the sequence (Q15910 whole entry, looked up) above

BXPC-3 [11] = assay: Inhibition of cell proliferation in human BXPC-3 cells assessed as decrease in c-Myc mRNA level at 5 uM incubated for 48 hrs by qRT-PCR analysis; assay type: functional, cell-based
MDA-MB-231 [12] = assay: Induction of apoptosis in human MDA-MB-231 cells assessed as viable cells at 2.5 uM incubated for 48 hrs by Annexin V-FITC/PI staining based flow cytometric analysis (reference value: 97.63%); assay type: functional; conditions: read-out: Activity
BXPC-3 [13] = assay: Induction of apoptosis in human BXPC-3 cells assessed as viable cells at 5 uM incubated for 48 hrs by Annexin V-FITC/PI staining based flow cytometric analysis (reference value: 90.70%); assay type: functional; conditions: read-out: Activity
BXPC-3 [14] = assay: Induction of apoptosis in human BXPC-3 cells assessed as necrotic cells at 2.5 uM incubated for 48 hrs by Annexin V-FITC/PI staining based flow cytometric analysis (reference value: 1.65 %); assay type: functional
BXPC-3 [15] = assay: Induction of cell cycle arrest in human BXPC-3 cells assessed as accumulation of cells at G0/G1 phase at 1 to 5 uM incubated for 48 hrs by flow cytometric analysis; assay type: functional, cell-based; conditions: dose 1-5 µM
[16] = AUC(0 to infinity) in ICR mouse at 60 mg/kg, ip measured upto 24 hrs by LC-MS/MS analysis; assay type: ADME, organism-based; set-up: time < 24 hrs, dose 60 mg/kg, route ip; conditions: in vivo
MDA-MB-231 [17] = assay: Induction of apoptosis in human MDA-MB-231 cells assessed as necrotic cells at 2.5 uM incubated for 48 hrs by Annexin V-FITC/PI staining based flow cytometric analysis (reference value: 0.63%); assay type: functional
[18] = Half-life in ICR mouse at 60 mg/kg, ip measured upto 24 hrs by LC-MS/MS analysis; assay type: ADME, organism-based; conditions: in vivo
MDA-MB-231 [19] = assay: Induction of apoptosis in human MDA-MB-231 cells assessed as late apoptotic cells at 2.5 uM incubated for 48 hrs by Annexin V-FITC/PI staining based flow cytometric analysis (reference value: 1.06%); assay type: functional
[20] = MRT(0 to t) in ICR mouse at 60 mg/kg, ip measured upto 24 hrs by LC-MS/MS analysis; assay type: ADME, organism-based; conditions: in vivo
BXPC-3 [21] = assay: Induction of apoptosis in human BXPC-3 cells assessed as viable cells at 2.5 uM incubated for 48 hrs by Annexin V-FITC/PI staining based flow cytometric analysis (reference value: 90.70%); assay type: functional; conditions: read-out: Activity
[22] = target: Bromodomain-containing protein 3 (Homo sapiens, UniProt Q15059); assay: Inhibition of BRD3-BD1/2 (unknown origin) by HTRF analysis
BXPC-3 [23] = assay: Induction of apoptosis in human BXPC-3 cells assessed as viable cells at 1 uM incubated for 48 hrs by Annexin V-FITC/PI staining based flow cytometric analysis (reference value: 90.70%); assay type: functional; conditions: read-out: Activity
[24] = target: Bromodomain testis-specific protein (Homo sapiens, UniProt Q58F21); assay: Inhibition of BRDT-BD1 (unknown origin) by HTRF analysis
BXPC-3 [25] = assay: Induction of apoptosis in human BXPC-3 cells assessed as late apoptotic cells at 5 uM incubated for 48 hrs by Annexin V-FITC/PI staining based flow cytometric analysis (reference value: 4.38 %); assay type: functional
[26] = target: T1, Histone-lysine N-methyltransferase EZH2; assay: Inhibition of EZH2 in human BX-PC-3 cells assessed as decrease in H3K27me3 level at 5 uM by fluorescence based analysis; assay type: cell-based; conditions: BXPC-3
Target sequence in this assay (Q15910 whole entry, looked up): as above

BXPC-3 [27] = assay: Induction of apoptosis in human BXPC-3 cells assessed as early apoptotic cells at 5 uM incubated for 48 hrs by Annexin V-FITC/PI staining based flow cytometric analysis (reference value: 3.28 %); assay type: functional
[28] = Cmax in ICR mouse at 60 mg/kg, ip measured upto 24 hrs by LC-MS/MS analysis; assay type: ADME, organism-based; set-up: time < 24 hrs, dose 60 mg/kg, route ip; conditions: in vivo
BXPC-3 [29] = assay: Induction of apoptosis in human BXPC-3 cells assessed as late apoptotic cells at 1 uM incubated for 48 hrs by Annexin V-FITC/PI staining based flow cytometric analysis (reference value: 4.38 %); assay type: functional
[30] = target: Bromodomain-containing protein 2 (Homo sapiens, UniProt P25440); assay: Inhibition of BRD2-BD1/2 (unknown origin) by HTRF analysis
[31] = AUC(0 to t) in ICR mouse at 60 mg/kg, ip measured upto 24 hrs by LC-MS/MS analysis; assay type: ADME, organism-based; set-up: time < 24 hrs, dose 60 mg/kg, route ip; conditions: in vivo
[32] = Toxicity in Balb/c nude mouse xenografted with human BXPC-3 cells assessed as effect on body weight at 30 to 60 mg/kg, ip administered daily for 30 days; assay type: organism-based; conditions: in vivo, 720 h, dose 30-60 mg/kg, time 30 day
[33] = target: Bromodomain-containing protein 4 (Homo sapiens, UniProt O60885); assay: Inhibition of BRD4 (unknown origin) by HTRF analysis
BXPC-3 [34] = assay: Antitumor activity against human BXPC-3 cells xenografted in Balb/c nude mouse assessed as reduction in tumor growth at 30 mg/kg, ip administered daily for 30 days; assay type: functional, organism-based; conditions: time 30.0 day

Bromodomain-containing protein 3, sequence (Q15059 whole entry): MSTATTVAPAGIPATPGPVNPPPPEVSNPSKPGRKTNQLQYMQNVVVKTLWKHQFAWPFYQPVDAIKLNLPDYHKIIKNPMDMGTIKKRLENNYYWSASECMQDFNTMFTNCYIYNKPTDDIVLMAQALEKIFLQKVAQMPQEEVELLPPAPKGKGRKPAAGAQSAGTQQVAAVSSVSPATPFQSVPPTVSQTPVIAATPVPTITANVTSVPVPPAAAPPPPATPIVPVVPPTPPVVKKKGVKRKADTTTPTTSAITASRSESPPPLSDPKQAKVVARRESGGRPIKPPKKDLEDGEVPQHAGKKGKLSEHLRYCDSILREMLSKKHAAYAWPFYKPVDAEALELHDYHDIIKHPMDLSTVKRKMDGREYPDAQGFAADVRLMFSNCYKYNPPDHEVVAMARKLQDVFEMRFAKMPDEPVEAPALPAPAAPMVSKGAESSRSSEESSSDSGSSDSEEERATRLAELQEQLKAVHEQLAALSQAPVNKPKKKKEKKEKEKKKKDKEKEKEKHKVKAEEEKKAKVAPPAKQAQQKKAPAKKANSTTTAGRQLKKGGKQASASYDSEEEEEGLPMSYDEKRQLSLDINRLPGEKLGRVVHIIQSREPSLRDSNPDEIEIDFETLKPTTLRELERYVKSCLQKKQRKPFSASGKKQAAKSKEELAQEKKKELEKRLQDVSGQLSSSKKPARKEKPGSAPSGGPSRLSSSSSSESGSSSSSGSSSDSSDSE
Bromodomain-containing protein 2, sequence (P25440 whole entry): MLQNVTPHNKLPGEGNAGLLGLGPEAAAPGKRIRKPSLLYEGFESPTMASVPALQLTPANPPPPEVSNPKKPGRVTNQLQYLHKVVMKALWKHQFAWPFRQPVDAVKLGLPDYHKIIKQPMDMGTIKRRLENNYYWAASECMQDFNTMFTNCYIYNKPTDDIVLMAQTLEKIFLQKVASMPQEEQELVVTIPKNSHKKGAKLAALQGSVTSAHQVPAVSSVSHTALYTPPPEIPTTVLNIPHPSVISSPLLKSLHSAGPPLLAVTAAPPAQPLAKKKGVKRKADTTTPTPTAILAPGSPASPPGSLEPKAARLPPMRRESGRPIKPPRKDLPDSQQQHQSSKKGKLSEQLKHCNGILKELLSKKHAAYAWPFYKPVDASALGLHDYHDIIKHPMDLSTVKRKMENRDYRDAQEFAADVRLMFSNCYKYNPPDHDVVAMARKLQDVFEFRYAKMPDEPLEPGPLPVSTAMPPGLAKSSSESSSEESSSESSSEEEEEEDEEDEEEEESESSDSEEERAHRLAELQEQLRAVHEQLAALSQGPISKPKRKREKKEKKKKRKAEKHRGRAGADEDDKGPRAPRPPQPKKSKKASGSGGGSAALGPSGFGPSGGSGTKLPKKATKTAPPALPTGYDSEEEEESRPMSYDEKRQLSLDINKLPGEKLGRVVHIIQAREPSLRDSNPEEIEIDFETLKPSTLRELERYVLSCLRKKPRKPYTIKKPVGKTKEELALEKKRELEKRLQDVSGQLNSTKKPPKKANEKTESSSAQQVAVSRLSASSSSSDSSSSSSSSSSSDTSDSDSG

inhibition [3]: Active
fraction unbound at 5 h, 2 µM [5]: 0.009
IC50 [10]: 2.3 nM
AUC(0-inf) [16]: 2000 ng·h/mL
half-life [18]: 13.6 h
MRT last at 24 h [20]: 2.55 h
IC50 [22]: 32 nM
IC50 [24]: 35 nM
inhibition [26]: Active
Cmax [28]: 2960 ng/mL
IC50 [30]: 31 nM
AUC(0-t) at 24 h [31]: 1820 ng·h/mL
IC50 [33]: 147 nM
Structure (SMILES): CCC(C)n1ccc2c(C(=O)NCc3c(C)cc(C)[nH]c3=O)cc(-c3cn(C)c(=O)c4[nH]ccc34)cc21 (configuration not stated)
Activity (BXPC-3 [1]): 16.95%
Activity (MDA-MB-231 [2]): 1.36%
Activity (A549): Active
Activity (BXPC-3 [4]): 6.84%
Activity (MDA-MB-231 [6]): 3.82%
viability at 5 µM (MDA-MB-231 [7]): 81.1%
Activity (PANC-1): Active
Activity (MDA-MB-231 [8]): Active
Activity (T-24): Active
inhibition (MDA-MB-231 [9]): Active
inhibition (BXPC-3 [11]): Active
viability at 2.5 µM (MDA-MB-231 [12]): 87.8%
viability at 5 µM (BXPC-3 [13]): 62.1%
Activity (BXPC-3 [14]): 2.86%
Activity (BXPC-3 [15]): Active
Activity (MDA-MB-231 [17]): 1.38%
Activity (MDA-MB-231 [19]): 2.29%
viability at 2.5 µM (BXPC-3 [21]): 71%
viability at 1 µM (BXPC-3 [23]): 82.6%
Activity (BXPC-3 [25]): 23.83%
Activity (BXPC-3 [27]): 10.73%
Activity (BXPC-3 [29]): 7.61%
Activity [32]: Non-Toxic
Activity (BXPC-3 [34]): inactive
